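Compound exposure: 48 hours, 5 concentrations, 96-well plates. TGI marks complete inhibition of growth.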
Experiments:
Test in all cases: NCI anticancer screen, dose series, 48 h
[1] = tested on: HCT-15 colon
[2] = tested on: K-562 leukemia
[3] = tested on: SNB-75 CNS
[4] = tested on: SK-MEL-2 melanoma
[5] = tested on: SR leukemia
[6] = tested on: BT-549 breast
[7] = tested on: T-47D breast
[8] = tested on: HS 578T breast
[9] = tested on: SK-MEL-5 melanoma
[10] = tested on: RXF 393 renal
[11] = tested on: NCI-H522 lung
[12] = tested on: KM12 colon
[13] = tested on: SF-539 CNS
[14] = tested on: HCC-2998 colon
[15] = tested on: SNB-19 CNS
[16] = tested on: UACC-62 melanoma
[17] = tested on: CAKI-1 renal
[18] = tested on: EKVX NSCLC
[19] = tested on: A549 NSCLC

Structure (SMILES)	TGI [1] [µM]	TGI [2] [µM]	TGI [3] [µM]	TGI [4] [µM]	TGI [5] [µM]	TGI [6] [µM]	TGI [7] [µM]	TGI [8] [µM]	TGI [9] [µM]	TGI [10] [µM]	TGI [11] [µM]	TGI [12] [µM]	TGI [13] [µM]	TGI [14] [µM]	TGI [15] [µM]	TGI [16] [µM]	TGI [17] [µM]	TGI [18] [µM]	TGI [19] [µM]
O=c1oc2ccc([N+](=O)[O-])cc2c(Nc2ccc3c(c2)S(=O)(=O)c2ccccc2O3)c1[N+](=O)[O-]	> 100	> 100	> 100	> 100	> 100	> 100	> 100	> 100	> 100	> 100	> 100	> 100	> 100	> 100	> 100	> 100	> 100	> 100	> 100
CC(=O)c1sc(=N)n(-c2c(C)cccc2C)c1C	> 100	> 100	> 100	> 100	> 100	> 100	> 100	> 100	> 100	> 100	> 100	> 100	> 100	> 100	> 100	> 100	–	> 100	> 100
Cc1c(C)c(S(=O)(=O)N(CCCCCON)OCCCN)c(C)c2c1OC(C)(C)CC2	28.5	> 40.3	27.3	29.1	> 21.7	29.3	16.8	41.7	29.5	25.1	31.6	27.3	28.5	–	28.9	27.4	16	24.7	26.1
CC1=NN=C(N)NC1=CC(Sc1ccc(Cl)cc1)c1c(O)ccc2ccccc12 (stereo not drawn)	> 63.3	> 100	70.2	23.2	> 100	> 81.5	58.9	41.3	21.2	20.3	41.8	36.9	–	32.2	> 74.9	25.9	> 69.6	69	> 92.9
COc1ccc(CCNC(=O)[C@H]2CCCC[C@@H]2CCO)cc1OC	> 100	> 100	> 100	> 100	> 100	> 100	> 100	> 100	> 100	> 100	> 100	> 100	> 100	> 100	> 100	> 100	> 100	> 100	> 100
O=C(/C=C(\O)c1ccccc1)c1cc(-c2ccccc2)n(-c2ccccc2)n1	> 100	> 100	–	> 100	5.2	26.1	37.9	> 100	48.7	> 100	42.4	> 100	72.3	> 100	> 100	13.4	54.5	> 100	24.9
N#CCCN(CCN(CCC#N)C(=O)Nc1ccccc1)C(=O)Nc1ccccc1	> 100	> 100	47.8	> 100	> 100	> 100	> 100	> 100	> 100	75.3	98.4	–	–	> 100	> 100	> 100	–	> 100	> 100
CC(=O)O[C@@H](C1C[C@@H](C)[C@H]2[C@@](O)(O1)[C@H](O)[C@@]1(C)C3=CC[C@H]4C(C)(C)[C@@H](OC5OCC(O)C(O)C5O)CC[C@@]45C[C@@]35CC[C@]21C)C(C)(C)O (stereo partly drawn)	71.1	> 100	–	36.9	49.8	80.8	67.7	> 100	32.7	36.9	36.9	58.1	30.3	27.7	> 100	40.3	> 100	61.6	> 100
CCc1cc2c(oc3cc(C)ccc32)c(=O)n1C	> 10	> 10	> 10	> 10	> 10	> 10	> 10	> 10	–	> 10	> 10	> 10	> 10	> 10	> 10	–	–	> 10	> 10
CCOP(=O)(OCC)/C(C#N)=C/c1ccnc2ccccc12	52.4	–	75.8	50.5	73.6	50.9	> 100	69.6	47.8	79.1	57.8	91.3	49.2	> 100	57.5	61.4	80.3	> 100	> 100

Source: PubChem BioAssay (NCI)
